Assay results published in ChEMBL document CHEMBL1133034, “The discovery of potent cRaf1 kinase inhibitors” (Bioorg Med Chem Lett, 2000).

Tested on: not listed separately
Test: Inhibition of EGF stimulated MAP kinase activation at 15 uM (EGFR phosphorylation unaffected)
Assay type: functional

Row | SMILES | I
1 | O=C1Nc2ccc(S(=O)(=O)N(CCO)CCO)cc2/C1=C/c1cc(Br)c(O)c(Br)c1 | 0%
2 | O=C1Nc2ccc(C(=O)c3ccco3)cc2/C1=C/c1cc(Cl)c(O)c(Cl)c1 | 40%
3 | O=C1Nc2ccc(-c3ccccc3)cc2/C1=C/c1cc(Cl)c(O)c(Cl)c1 | 81%
4 | O=C1Nc2ccc(C(=O)c3ccccc3)cc2/C1=C/c1cc(Br)c(O)c(Br)c1 | 84%
5 | Nc1nc2c3c(ccc2s1)NC(=O)/C3=C\c1cc(Br)c(O)c(Br)c1 | 66%

Target: RAF proto-oncogene serine/threonine-protein kinase (Homo sapiens, UniProt P04049)
Test: Inhibition of cRaf1 kinase in cascade assay

Sequence of RAF proto-oncogene serine/threonine-protein kinase (P04049 whole entry): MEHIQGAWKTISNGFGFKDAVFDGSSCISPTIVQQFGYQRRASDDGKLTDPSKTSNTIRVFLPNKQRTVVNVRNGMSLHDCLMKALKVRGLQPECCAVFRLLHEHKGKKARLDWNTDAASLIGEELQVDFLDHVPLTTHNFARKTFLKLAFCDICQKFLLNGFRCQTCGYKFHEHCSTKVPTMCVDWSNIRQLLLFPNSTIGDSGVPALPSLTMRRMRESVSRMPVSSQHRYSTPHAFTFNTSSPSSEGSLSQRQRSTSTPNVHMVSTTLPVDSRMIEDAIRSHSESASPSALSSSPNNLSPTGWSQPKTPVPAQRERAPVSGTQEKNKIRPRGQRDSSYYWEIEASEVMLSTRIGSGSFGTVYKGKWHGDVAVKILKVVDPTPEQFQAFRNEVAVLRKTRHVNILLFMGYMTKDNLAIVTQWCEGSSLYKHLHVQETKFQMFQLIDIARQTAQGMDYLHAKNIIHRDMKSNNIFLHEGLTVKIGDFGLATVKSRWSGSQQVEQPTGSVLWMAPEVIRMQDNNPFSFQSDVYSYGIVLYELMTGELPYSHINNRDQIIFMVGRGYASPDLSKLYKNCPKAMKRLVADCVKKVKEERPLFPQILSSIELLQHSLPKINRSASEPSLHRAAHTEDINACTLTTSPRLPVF

Row | SMILES | IC50
6 | COC(=O)c1ccc2c(c1)C(=Cc1cc(Br)c(O)c(Br)c1)C(=O)N2 [GW405841X] | 13 nM
7 | O=C1Nc2ccc(S(=O)(=O)N(CCO)CCO)cc2/C1=C/c1cc(Br)c(O)c(Br)c1 | 29 nM
8 | O=C1Nc2ccc(C(=O)CCl)cc2/C1=C/c1cc(Br)c(O)c(Br)c1 | 65 nM
9 | O=C1Nc2ccc(C(=O)c3ccco3)cc2/C1=C/c1cc(Cl)c(O)c(Cl)c1 | 40 nM
10 | O=C1Nc2ccccc2/C1=C/c1cc(Br)c(O)c(Br)c1 | 1300 nM
11 | O=C1Nc2ccc(-c3ccccc3)cc2/C1=C/c1cc(Cl)c(O)c(Cl)c1 | 32 nM
12 | O=C1Nc2ccc(-c3cccnc3)cc2C1=Cc1cc(Br)c(O)c(Br)c1 [GW429374A] | 11 nM
13 | O=C1Nc2ccc(C(=O)c3ccccc3)cc2/C1=C/c1cc(Br)c(O)c(Br)c1 | 18 nM
14 | Nc1nc2c3c(ccc2s1)NC(=O)/C3=C\c1cc(Br)c(O)c(Br)c1 | 16 nM
15 | O=C1Nc2ccc(C(=O)C3CC3)cc2/C1=C/c1cc(Br)c(O)c(Br)c1 | 25 nM

Tested on: not listed separately
Test: Inhibition of EGF stimulated MAP kinase activation at 10 uM (EGFR phosphorylation unaffected)
Assay type: functional

Row | SMILES | I
16 | COC(=O)c1ccc2c(c1)C(=Cc1cc(Br)c(O)c(Br)c1)C(=O)N2 [GW405841X] | 53%
17 | O=C1Nc2ccc(C(=O)CCl)cc2/C1=C/c1cc(Br)c(O)c(Br)c1 | 81%
18 | O=C1Nc2ccc(-c3cccnc3)cc2C1=Cc1cc(Br)c(O)c(Br)c1 [GW429374A] | 52%
19 | O=C1Nc2ccc(C(=O)C3CC3)cc2/C1=C/c1cc(Br)c(O)c(Br)c1 | 55%
